Results: BindingDB's records for patent US12180207 (Array Biopharma, 2024)

How the values were obtained:
[1] = target: T1, Fibroblast growth factor receptor 1 (Homo sapiens, UniProt P11362); assay: FGFR1 Enzyme Activity Assay
Description: (§1) FGFR1 kinase activity was measured by the Invitrogen LanthaScreen™ Assay technology which directly measures the amount of substrate phosphorylation by Time-resolved fluorescence energy transfer (TR-FRET) using a fluorescently-labeled peptide and Europium-labeled antibody. […] After a 20 minutes incubation at 22° C., an equal volume of 2 nM LanthaScreen Eu-PY20 Antibody (Life Technologies Cat. No. PV5691) and 10 mM EDTA was added to quench the kinase reaction and start the detection reaction. After an additional 60 minute incubation at 22° C., the reaction was measured using a PerkinElmer EnVision multimode plate reader via TR-FRET dual wavelength detection, and the percent of control (POC) calculated using a ratiometric emission factor. 100 POC was determined using no test compounds and 0 POC was determined using no enzyme. The POC values were fit to a 4-parameter logistic curve as a function of the concentration of the compound, and the IC50 value is the point where the curve crosses 50 POC.

[2] = target: T1, Fibroblast growth factor receptor 1; assay: Enzyme Assay
Description: (§2) he potency of compounds inhibiting human isoforms of FGFR kinase was determined using Life Technologies' Homogeneous Time Resolved Fluorescence (HTRF)-based binding assay technology. […] After a 60 minute incubation at 22° C., the extent of tracer displacement was determined using a PerkinElmer EnVision multimode plate reader via HTRF dual wavelength detection, and the percent of control (POC) was calculated using a ratiometric emission factor. One hundred POC was determined using no test compound, and 0 POC was determined in the presence of 1 μM of an appropriate control inhibitor.

[3] = target: T2, Fibroblast growth factor receptor 3 (Homo sapiens, UniProt P22607); assay: Enzyme Assay
Description: as §2

[4] = target: T3, Fibroblast growth factor receptor 2 (Homo sapiens, UniProt P21802); assay: FGFR2 Enzyme Activity Assay
Description: as §1, with “FGFR2 kinase” for “FGFR1 kinase”, “by TR-FRET” for “by Time-resolved fluorescence energy transfer (TR-FRET)”, “20 minute” for “20 minutes”, “EDTA were” for “EDTA was”

[5] = target: T2, Fibroblast growth factor receptor 3; assay: FGFR3 Enzyme Activity Assay
Description: as §1, with “FGFR3 kinase” for “FGFR1 kinase”, “by TR-FRET” for “by Time-resolved fluorescence energy transfer (TR-FRET)”, “a 10 minute” for “a 20 minutes”, “EDTA were” for “EDTA was”

[6] = target: T3, Fibroblast growth factor receptor 2; assay: Enzyme Assay
Description: as §2

T2 sequence (P22607 whole entry): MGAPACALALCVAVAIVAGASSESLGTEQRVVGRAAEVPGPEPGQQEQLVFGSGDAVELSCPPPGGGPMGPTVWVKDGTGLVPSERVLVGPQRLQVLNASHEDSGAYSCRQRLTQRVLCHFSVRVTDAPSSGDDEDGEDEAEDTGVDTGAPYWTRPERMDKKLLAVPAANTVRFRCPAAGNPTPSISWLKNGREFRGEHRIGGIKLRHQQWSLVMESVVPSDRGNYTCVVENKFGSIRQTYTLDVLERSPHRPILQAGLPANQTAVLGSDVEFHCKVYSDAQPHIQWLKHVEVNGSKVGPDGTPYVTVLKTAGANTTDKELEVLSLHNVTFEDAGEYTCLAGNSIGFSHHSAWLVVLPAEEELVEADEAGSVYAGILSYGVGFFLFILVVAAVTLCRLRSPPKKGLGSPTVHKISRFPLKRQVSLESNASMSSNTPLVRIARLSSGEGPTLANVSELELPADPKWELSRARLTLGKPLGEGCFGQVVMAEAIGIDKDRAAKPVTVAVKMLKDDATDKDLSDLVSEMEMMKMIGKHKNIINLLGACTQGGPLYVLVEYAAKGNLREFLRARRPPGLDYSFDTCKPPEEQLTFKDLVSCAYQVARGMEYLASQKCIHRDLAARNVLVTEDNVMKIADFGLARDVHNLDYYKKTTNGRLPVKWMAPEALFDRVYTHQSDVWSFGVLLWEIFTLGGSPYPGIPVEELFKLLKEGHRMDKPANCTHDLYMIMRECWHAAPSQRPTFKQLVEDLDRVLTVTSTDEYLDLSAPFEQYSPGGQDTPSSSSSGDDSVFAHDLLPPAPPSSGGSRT
T3 sequence (P21802 whole entry): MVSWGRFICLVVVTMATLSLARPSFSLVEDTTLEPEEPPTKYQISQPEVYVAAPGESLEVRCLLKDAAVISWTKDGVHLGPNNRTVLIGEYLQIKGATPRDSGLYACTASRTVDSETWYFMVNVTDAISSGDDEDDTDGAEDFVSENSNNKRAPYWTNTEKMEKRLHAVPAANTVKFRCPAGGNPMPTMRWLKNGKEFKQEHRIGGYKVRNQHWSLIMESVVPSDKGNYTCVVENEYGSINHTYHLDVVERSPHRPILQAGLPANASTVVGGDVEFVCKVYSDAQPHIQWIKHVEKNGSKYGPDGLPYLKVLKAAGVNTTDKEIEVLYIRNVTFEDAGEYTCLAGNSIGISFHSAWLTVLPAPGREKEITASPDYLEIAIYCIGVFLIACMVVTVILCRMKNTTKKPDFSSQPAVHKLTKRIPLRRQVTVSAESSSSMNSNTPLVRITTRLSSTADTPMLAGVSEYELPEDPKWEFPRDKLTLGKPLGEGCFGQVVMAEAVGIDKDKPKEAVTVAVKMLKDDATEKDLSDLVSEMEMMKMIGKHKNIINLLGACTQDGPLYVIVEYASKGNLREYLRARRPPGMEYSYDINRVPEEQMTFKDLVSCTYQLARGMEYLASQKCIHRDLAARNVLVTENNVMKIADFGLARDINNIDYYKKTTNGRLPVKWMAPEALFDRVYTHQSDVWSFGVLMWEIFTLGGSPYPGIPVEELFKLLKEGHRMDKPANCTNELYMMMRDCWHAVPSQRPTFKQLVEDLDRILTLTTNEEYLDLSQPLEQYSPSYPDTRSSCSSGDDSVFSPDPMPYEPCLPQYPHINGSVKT
T1 sequence (P11362 whole entry): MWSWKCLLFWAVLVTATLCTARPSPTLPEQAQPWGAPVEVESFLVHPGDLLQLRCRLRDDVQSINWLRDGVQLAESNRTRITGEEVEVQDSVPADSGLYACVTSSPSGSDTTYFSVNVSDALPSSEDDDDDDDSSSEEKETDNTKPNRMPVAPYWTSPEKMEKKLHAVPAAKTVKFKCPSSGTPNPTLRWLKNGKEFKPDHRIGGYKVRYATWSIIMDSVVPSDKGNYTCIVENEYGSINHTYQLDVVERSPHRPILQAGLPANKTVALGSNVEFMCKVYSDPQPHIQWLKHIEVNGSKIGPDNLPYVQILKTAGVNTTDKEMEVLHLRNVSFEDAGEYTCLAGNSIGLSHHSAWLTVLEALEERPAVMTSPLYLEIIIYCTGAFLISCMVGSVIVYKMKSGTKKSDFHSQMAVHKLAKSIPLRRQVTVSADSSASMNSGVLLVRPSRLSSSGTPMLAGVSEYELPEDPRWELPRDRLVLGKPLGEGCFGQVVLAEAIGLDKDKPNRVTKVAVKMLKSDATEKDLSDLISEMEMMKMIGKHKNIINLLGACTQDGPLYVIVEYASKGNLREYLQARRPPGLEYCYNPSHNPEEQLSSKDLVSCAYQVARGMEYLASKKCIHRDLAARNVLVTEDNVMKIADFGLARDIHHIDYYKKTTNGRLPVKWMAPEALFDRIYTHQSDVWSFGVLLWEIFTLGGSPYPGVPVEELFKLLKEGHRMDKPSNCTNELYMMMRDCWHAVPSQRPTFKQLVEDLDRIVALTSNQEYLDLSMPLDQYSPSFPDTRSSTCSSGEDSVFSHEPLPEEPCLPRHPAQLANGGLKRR

`C=CC(=O)N[C@H]1CCC[C@@H](C(=O)N2CCC(n3cc(-c4cc(OC)c5c(C#N)cnn5c4)cn3)CC2)C1` [US12180207, Example 19] gave an IC50 [1] of 0.02 µM, an IC50 [2] of 0.056 µM and an IC50 [3] of 0.011 µM. The IC50 [4] was 0.008 µM and the IC50 [5] was 0.007 µM.
`C=CC(=O)N[C@@H]1CC[C@H](C(=O)N2CCC(n3cc(-c4cc(OC)c5c(C#N)cnn5c4)cn3)CC2)C1` [US12180207, Example 32] gave an IC50 [1] of 0.013 µM, an IC50 [2] of 0.113 µM and an IC50 [3] of 0.031 µM. For the same compound, the IC50 [4] was 0.004 µM and the IC50 [5] was 0.003 µM.
Work on `C=CC(=O)N[C@H]1CC[C@@H](C(=O)N2CCC(n3cc(-c4cc(OC)c5c(C#N)cnn5c4)cn3)CC2)C1` [US12180207, Example 33] yielded an IC50 [2] of 0.02 µM, an IC50 [3] of 0.003 µM and an IC50 [4] of 0.004 µM. The IC50 [5] was 0.001 µM.
For `C=CC(=O)N[C@@H]1CC[C@@H](C(=O)N2CCC(n3cc(-c4cc(OC)c5c(C#N)cnn5c4)cn3)CC2)C1` [US12180207, Example 34], the IC50 [1] was 0.019 µM, the IC50 [2] was 0.231 µM and the IC50 [3] was 0.036 µM. For the same compound, the IC50 [4] was 0.005 µM and the IC50 [5] was 0.002 µM.
`C=CC(=O)N[C@H]1CC[C@H](C(=O)N2CCC(n3cc(-c4cc(OC)c5c(C#N)cnn5c4)cn3)CC2)C1` [US12180207, Example 35] was tested, and the IC50 [1] was 0.019 µM, the IC50 [2] was 0.119 µM and the IC50 [3] was 0.023 µM. It also gave an IC50 [4] of 0.005 µM and an IC50 [5] of 0.003 µM.
With `C=CC(=O)Nc1ccc(S(=O)(=O)N2CCC(n3cc(-c4cc(OC)c5c(C#N)cnn5c4)cn3)CC2)cc1` [US12180207, Example 49] the IC50 [1] was 0.043 µM, the IC50 [2] was 0.113 µM and the IC50 [3] was 0.013 µM. For the same compound, the IC50 [5] was 0.005 µM.
`C=CC(=O)N[C@H]1CC[C@H](C(=O)N2CC(n3cc(-c4cc(OC)c5c(C#N)cnn5c4)cn3)C2)C1` [US12180207, Example 77] gave an IC50 [1] of 0.035 µM, an IC50 [2] of 0.393 µM and an IC50 [3] of 0.118 µM. For the same compound, the IC50 [4] was 0.012 µM and the IC50 [5] was 0.011 µM.
In the case of `C=C(F)C(=O)N1CC(C(=O)N2CCC(n3cc(-c4cc(OC)c5c(C#N)cnn5c4)cn3)CC2)C1` [US12180207, Example 140], the IC50 [1] is reported as 0.021 µM, the IC50 [2] is reported as 0.037 µM and the IC50 [6] is reported as 0.019 µM. The IC50 [3] was 0.007 µM, the IC50 [4] was 0.002 µM and the IC50 [5] was 0.004 µM.
Work on `COc1cc(-c2cnn(C3CCN(C(=O)C4CN(C(=O)/C=C/CF)C4)CC3)c2)cn2ncc(C#N)c12` [US12180207, Example 142] yielded an IC50 [1] of 0.02 µM, an IC50 [2] of 0.036 µM and an IC50 [6] of 0.016 µM. The IC50 [3] was 0.005 µM and the IC50 [4] was 0.003 µM.
For `COc1cc(-c2cnn(C3CCN(C(=O)/C=C/CN(C)C)CC3)c2)cn2ncc(C#N)c12` [US12180207, Example 144], the IC50 [1] was 0.011 µM, the IC50 [2] was 0.276 µM and the IC50 [3] was 0.024 µM. It also gave an IC50 [4] of 0.005 µM and an IC50 [5] of 0.004 µM.
In the case of `COc1cc(-c2cnn(C3CN(CC4CN(C(=O)/C=C/CN(C)C)C4)C3)c2)cn2ncc(C#N)c12` [US12180207, Example 148], the IC50 [1] is reported as 0.047 µM, the IC50 [2] is reported as 0.217 µM and the IC50 [3] is reported as 0.014 µM. For the same compound, the IC50 [4] was 0.006 µM and the IC50 [5] was 0.004 µM.
With `COc1cc(-c2cnn(C3CN(C(=O)C4CN(C(=O)/C=C/CN(C)C)C4)C3)c2)cn2ncc(C#N)c12` [US12180207, Example 150] the IC50 [1] was 0.008 µM, the IC50 [2] was 0.229 µM and the IC50 [3] was 0.022 µM. The IC50 [4] was 0.006 µM and the IC50 [5] was 0.007 µM.
`C=CS(=O)(=O)N[C@H]1CC[C@H](C(=O)N2CCC(n3cc(-c4cc(OC)c5c(C#N)cnn5c4)cn3)CC2)CC1` [US12180207, Example 187] showed an IC50 [1] of 0.017 µM, an IC50 [2] of 0.031 µM and an IC50 [3] of 0.004 µM. For the same compound, the IC50 [4] was 0.005 µM.
`C=CS(=O)(=O)N[C@H]1C[C@@H](C(=O)N2CCC(n3cc(-c4cc(OC)c5c(C#N)cnn5c4)cn3)CC2)C1` [US12180207, Example 193] gave an IC50 [1] of 0.007 µM and an IC50 [2] of 0.036 µM.
Work on `C=CS(=O)(=O)N[C@H]1C[C@H](C(=O)N2CCC(n3cc(-c4cc(OC)c5c(C#N)cnn5c4)cn3)CC2)C1` [US12180207, Example 194] yielded an IC50 [1] of 0.013 µM and an IC50 [2] of 0.093 µM.
`C=CS(=O)(=O)Nc1ccc(C(=O)N2CCC(n3cc(-c4cc(OC)c5c(C#N)cnn5c4)cn3)CC2)cc1` [US12180207, Example 196] showed an IC50 [1] of 0.01 µM, an IC50 [2] of 0.031 µM and an IC50 [3] of 0.003 µM. It also gave an IC50 [4] of 0.008 µM and an IC50 [5] of 0.002 µM.
